Source: paper PMC11308618, “Determinants of interactions of a novel next-generation gabapentinoid NVA1309 and mirogabalin with the Cavα2δ-1 subunit” (Molecular Brain, 2024)

Tests used:
Cavα2δ-1 [1] = system: T1, Cavα2δ-1; test: SPR (Biacore) on immobilized peptide; also […] lowers Cav2.[…] current in tsA201 cells, lost with R243A or K615A Cavα[…]δ-1; assay type: binding, Oryctolagus cuniculus
T1 construct: gene CACNA2D1; chemically synthesized peptide surrounding the K615 locus ([…]; peptide P3)

Cavα2δ-1 [2] = target: T1, Cavα2δ-1; test: SPR (Biacore) on immobilized peptide; assay type: binding, Oryctolagus cuniculus

| SMILES | Kd (Cavα2δ-1 [1]) [µM] | Kd (Cavα2δ-1 [2]) [µM] |
| --- | --- | --- |
| CCC1=C[C@@H]2[C@H](C1)C[C@]2(CN)CC(=O)O [mirogabalin] | 161 ± 60 |  |
| CCC1=C[C@@H]2[C@H](C1)C[C@]2(CN)Cc1nnn[nH]1 [NVA1309] |  | 273 ± 101 |
